Test results from US8026219B2, “Antimicrobial linear peptides” (Universitat de Girona, priority 2006, dated 2011).
Residues, ends and D or L forms follow the SMILES beside them. No end group written: not given here. *: point of attachment. Tos = Cc1ccc(S(=O)(=O)*)cc1; Bz = O=C(c1ccccc1)*

Columns and labels:
[1] = tested on: Erwinia amylovora PMV6076; assay: Minimum inhibitory concentration (MIC), microbial growth by optical density; format: cell-based; settings: 48 h incubation at 25° C., TSB medium
Experimental: (§1) Each experiment was performed twice.

[2] = tested on: Pseudomonas syringae EPS94; assay: as above; format: cell-based; settings: 48 h incubation at 25° C., TSB medium
Experimental: as §1

[3] = tested on: Xanthomonas vesicatori 2133-2; assay: as above; settings: 48 h incubation at 25° C., TSB medium
Experimental: All the bacteria were stored at a temperature of −80° C. in Luria-Bertani (LB) medium supplemented with 20% glycerine in volume/volume.
In all cases they were resuspended in sterile water to obtain a suspension adjusted to an absorbance of 0.2 to 60 nm, which approximately corresponds to 10^8 colony forming units.
To determine the minimum inhibitory concentration (MIC), the peptides were solubilized in milli-Q sterile water until a final concentration of 1000 μM and they were filtered through a 0.22 μm pore size filter.
Dilutions of the peptides of the invention were made to obtained solutions at the concentrations of 750, 500, 250, 200, 150, 125, 100, 75, 50 and 25 μM.
20 μl of each dilution were mixed with 20 μl of the suspension of the corresponding bacterial indicator, and 160 μl of the TSB (Trypticase Soy Broth) liquid medium until a total volume of 200 μl in each well of a microplate.
Two replicas were carried out for each strain, concentration and peptide under study.
The positive controls contained water instead of peptide, and the negative controls contained the peptides without the bacterial suspension.
The microbial growth was determined automatically by optical density at 600 nm using the Microbiology Analyser Bioscreen C (Labsystems)
The microplates were incubated at 25° C. for 48 hours with stirring for 20 seconds before measuring the absorbance every hour. Each experiment was performed twice.

[4] = tested on: erythrocytes from fresh human blood; settings: 5% erythrocytes, 1 h at 37° C., relative to 200 μM melittin; for % Haemolysis 50 μM: 50 μM peptide; for % Haemolysis 150 μM: 150 μM peptide; for % Haemolysis 250 μM: 250 μM peptide
Experimental: A description of the methodology used to determine the haemolytic activity is found in Oren et al, Biochemistry, 2000, 39, 6103-6114, and in Raguse et al., J. Am. Chem. Soc., 2002, 124, 12774-12785.
The haemolytic activity of the peptides of the invention was evaluated by determining the release of haemoglobin which is produced on placing in contact a solution of the peptides with a suspension of erythrocytes 5% by volume, from fresh human blood.
The blood was collected aseptically using a Vactainer® K2E system (Belliver, Great Britain) with EDTA and it was stored at 4° C. for a period lower than 2 hours.
The blood was centrifuged at 6000 g for 5 minutes to separate the erythrocytes. There were washed three times with TRIS buffer (10 mM TRIS, 150 mM NaCl, pH 7.2) and they were resuspended in TRIS buffer until obtaining a suspension which contained 10% by volume of erythrocytes.
The peptides were solubilized in TRIS buffer until a final concentration of 100, 300 and 500 μM
The replicas were used for each peptide and concentration.
65 μl of 10% erythrocyte suspension was mixed with 65 μl of the peptide solution in each well of a 96-well plate (Micro-Amp®, Applied Biosystems, USA) (5% by volume of erythrocytes) and the mixture was incubated for 1 h at 37° C. under stirring. In this way, the erythrocyte suspensions were subjected to peptide concentrations of 50, 150 and 250 μM.
Next, the plates were centrifuged at 3500 g during 10 minutes and aliquots were transferred of 80 μl of supernatant to microplates with 100 wells (Bioscreen), which were diluted with 80 μl of milli-Q water.
The degree of haemolysis was determined from the absorbance at 540 nm with a Bioscreen plate reader.
The complete positive haemolysis control was determined in a TRIS buffer solution which contained 200 μM melittin (Sigma-Aldrich, Spain)
The percentage of haemolysis (H) was determined using the following equation: H=100×[Op−Ob)/(Om−Ob)]
Where OP as the optical density measured for a determined peptide concentration, Ob was the optical density of the buffer solution, and Om was the optical density for the positive control with melittin.

| Molecule | range of concentrations including the MIC, E. amylovora [1] | range of concentrations including the MIC, P. syringae [2] | range of concentrations including the MIC, X. vesicatoria [3] | % Haemolysis 50 μM [4] | % Haemolysis 150 μM [4] | % Haemolysis 250 μM [4] |
| --- | --- | --- | --- | --- | --- | --- |
| Ac-KKLFKKILKVL-NH2 [BP029] | 5 to 7.5 µM | 5 to 7.5 µM | 7.5 µM |  |  |  |
| CC[C@H](C)[C@H](NC(=O)[C@H](CCCCN)NC(=O)[C@H](CCCCN)NC(=O)[C@H](Cc1ccccc1)NC(=O)[C@H](CC(C)C)NC(=O)[C@H](CCCCN)NC(=O)[C@H](Cc1ccc(O)cc1)NC(C)=O)C(=O)N[C@@H](CC(C)C)C(=O)N[C@@H](CCCCN)C(=O)N[C@@H](Cc1ccc(O)cc1)C(=O)N[C@@H](CC(C)C)C(N)=O [BP096] |  |  |  | 47% | 86% | 85% |
| CC[C@H](C)[C@H](NC(=O)[C@H](CCCCN)NC(=O)[C@H](CCCCN)NC(=O)[C@H](Cc1ccccc1)NC(=O)[C@H](CC(C)C)NC(=O)[C@H](CCCCN)NC(=O)[C@H](CCCCN)NC(C)=O)C(=O)N[C@@H](CC(C)C)C(=O)N[C@@H](CCCCN)C(=O)N[C@@H](CCCCN)C(=O)N[C@@H](CC(C)C)C(N)=O [BP124] |  |  |  | 1% | 5% | 23% |
| FKLFKKILKFL-NH2 [BP066] | 2.5 to 5 µM | 5 to 7.5 µM | 2.5 to 5 µM | 9% | 63% | 89% |
| CC[C@H](C)[C@H](NC(=O)[C@H](CCCCN)NC(=O)[C@H](CCCCN)NC(=O)[C@H](Cc1ccccc1)NC(=O)[C@H](CC(C)C)NC(=O)[C@H](CCCCN)NC(=O)[C@H](CCCCN)NC(=O)c1ccccc1)C(=O)N[C@@H](CC(C)C)C(=O)N[C@@H](CCCCN)C(=O)N[C@@H](Cc1ccc(O)cc1)C(=O)N[C@@H](CC(C)C)C(N)=O [BP103] | 7.5 µM | 5 to 7.5 µM | <2.5 µM | 42% | 83% | 80% |
| WKLFKKILKWL-NH2 [BP018] | 5 to 7.5 µM | 5 to 7.5 µM | 2.5 µM | 78% | 68% | 74% |
| CC[C@H](C)[C@H](NC(=O)[C@H](CCCCN)NC(=O)[C@H](CCCCN)NC(=O)[C@H](Cc1ccccc1)NC(=O)[C@H](CC(C)C)NC(=O)[C@H](CCCCN)NC(=O)[C@H](Cc1ccc(O)cc1)NS(=O)(=O)c1ccc(C)cc1)C(=O)N[C@@H](CC(C)C)C(=O)N[C@@H](CCCCN)C(=O)N[C@@H](CCCCN)C(=O)N[C@@H](CC(C)C)C(N)=O [BP121] (Tos-YKLFKKILKKL-NH2) | >7.5 µM | 2.5 to 5 µM | 2.5 to 5 µM | 22% | 81% | 86% |
| CC[C@H](C)[C@H](NC(=O)[C@H](CCCCN)NC(=O)[C@H](CCCCN)NC(=O)[C@H](Cc1ccccc1)NC(=O)[C@H](CC(C)C)NC(=O)[C@H](CCCCN)NC(=O)[C@H](CCCCN)NC(=O)c1ccccc1)C(=O)N[C@@H](CC(C)C)C(=O)N[C@@H](CCCCN)C(=O)N[C@@H](Cc1c[nH]c2ccccc12)C(=O)N[C@@H](CC(C)C)C(N)=O [BP055] (Bz-KKLFKKILKWL-NH2) | >7.5 µM | >7.5 µM | <2.5 µM |  |  |  |
| CC[C@H](C)[C@H](NC(=O)[C@H](CCCCN)NC(=O)[C@H](CCCCN)NC(=O)[C@H](Cc1ccccc1)NC(=O)[C@H](CC(C)C)NC(=O)[C@H](CCCCN)NC(=O)[C@H](CCCCN)NS(=O)(=O)c1ccc(C)cc1)C(=O)N[C@@H](CC(C)C)C(=O)N[C@@H](CCCCN)C(=O)N[C@@H](Cc1ccc(O)cc1)C(=O)N[C@@H](CC(C)C)C(N)=O [BP102] | 5 to 7.5 µM | 2.5 to 5 µM | <2.5 µM | 39% | 79% | 80% |
| Ac-WKLFKKILKWL-NH2 [BP038] | >7.5 µM | >7.5 µM | <2.5 µM | 80% | 86% | 80% |
| CC[C@H](C)[C@H](NC(=O)[C@H](CCCCN)NC(=O)[C@H](CCCCN)NC(=O)[C@H](Cc1ccccc1)NC(=O)[C@H](CC(C)C)NC(=O)[C@H](CCCCN)NC(=O)[C@H](Cc1ccc(O)cc1)NC(=O)c1ccccc1)C(=O)N[C@@H](CC(C)C)C(=O)N[C@@H](CCCCN)C(=O)N[C@@H](CCCCN)C(=O)N[C@@H](CC(C)C)C(N)=O [BP122] (Bz-YKLFKKILKKL-NH2) | >7.5 µM | 5 to 7.5 µM | 2.5 to 5 µM | 32% | 78% | 96% |
| YKLFKKILKKL-NH2 [BP119] |  |  |  | 4% | 19% | 45% |
| CC[C@H](C)[C@H](NC(=O)[C@H](CCCCN)NC(=O)[C@H](CCCCN)NC(=O)[C@H](Cc1ccccc1)NC(=O)[C@H](CC(C)C)NC(=O)[C@H](CCCCN)NC(=O)[C@H](CC(C)C)NS(=O)(=O)c1ccc(C)cc1)C(=O)N[C@@H](CC(C)C)C(=O)N[C@@H](CCCCN)C(=O)N[C@@H](Cc1c[nH]c2ccccc12)C(=O)N[C@@H](CC(C)C)C(N)=O [BP059] (Tos-LKLFKKILKWL-NH2) | >7.5 µM | >7.5 µM | 2.5 µM |  |  |  |
| LKLFKKILKKL-NH2 [BP128] |  |  |  | 2% | 31% | 66% |
| CC[C@H](C)[C@H](NC(=O)[C@H](CCCCN)NC(=O)[C@H](CCCCN)NC(=O)[C@H](Cc1ccccc1)NC(=O)[C@H](CC(C)C)NC(=O)[C@H](CCCCN)NC(=O)[C@H](CCCCN)NS(=O)(=O)c1ccc(C)cc1)C(=O)N[C@@H](CC(C)C)C(=O)N[C@@H](CCCCN)C(=O)N[C@@H](Cc1c[nH]c2ccccc12)C(=O)N[C@@H](CC(C)C)C(N)=O [BP054] (Tos-KKLFKKILKWL-NH2) | >7.5 µM | 5 to 7.5 µM | <2.5 µM |  |  |  |
| CC[C@H](C)[C@H](NC(=O)[C@H](CCCCN)NC(=O)[C@H](CCCCN)NC(=O)[C@H](Cc1ccccc1)NC(=O)[C@H](CC(C)C)NC(=O)[C@H](CCCCN)NC(=O)[C@@H](N)CCCCN)C(=O)N[C@@H](CC(C)C)C(=O)N[C@@H](CCCCN)C(=O)N[C@@H](Cc1c[nH]c2ccccc12)C(=O)N[C@@H](CC(C)C)C(N)=O [BP017] | >7.5 µM | 5 to 7.5 µM | 5 to 7.5 µM |  |  |  |
| Ac-YKLFKKILKKL-NH2 [BP120] | >7.5 µM | 5 to 7.5 µM | 5 to 7.5 µM |  |  |  |
